Data published in patent publication US7550625B2, “Esters of florfenicol” (priority 2007, dated 2009).

Experiments:
[1] = tested on: various bacteria; conditions: cited from earlier work
[2] = tested on: variety of microorganisms; conditions: cited from earlier work
[3] = Serum concentration of florfenicol after subcutaneous injection to an animal; type: in vivo
From the text: A lower Cmax advantageously avoids undesirable side-effects.

[4] = added to serum in vitro; compared with florfenicol butyrate

Question: With `CS(=O)(=O)c1ccc([C@@H](O)[C@@H](CF)NC(=O)C(Cl)Cl)cc1` [florfenicol] as the compound, how does the “typical minimum inhibitory concentrations (MICs)” value [1] read?
Answer: 0.3 to 1 µg/mL

Question: What about the activity against microorganisms ([2]; Citrobacter, Proteus mirabilis, Proteus sp., Shigella, Salmonella, Providencia, Bacteroides, Staphylococcos aureus, Enterococci, Pasteurlla haemolytica, Pasteurella multocida, Haemophilus somnus, Haemophilus influenza) of the same compound?
Answer: active

Question: What about the “resistance of microorganisms to the substance” value ([2]; Serratia marcescens, Pseudomonas aeruginosa, Acinetobacter) of the same compound?
Answer: resistant

Question: Which results are given for `COCCOCC(=O)O[C@H](c1ccc(S(C)(=O)=O)cc1)[C@@H](CF)NC(=O)C(Cl)Cl` [formula (Ia)]?
Answer: Cmax for the serum concentration of florfenicol ([3]; administered to an animal, compared with florfenicol): lower than the Cmax for the serum concentration of florfenicol when florfenicol is administered; time period for which serum concentration of florfenicol is therapeutically effective ([3]; subcutaneous injection, compared with florfenicol or florfenicol butyrate): longer; rate of hydrolysis in serum [4]: hydrolyzed faster than florfenicol butyrate

Question: For `CN(C)CC(=O)OC(c1ccc(S(C)(=O)=O)cc1)C(CF)NC(=O)C(Cl)Cl` (stereo not shown) [formula (Ib)], which “pharmacokinetic and pharmacodynamic profile” value ([3]; when administered to an animal, expected, compared with florfenicol and other florfenicol esters) is on record?
Answer: superior pharmacokinetic and pharmacodynamic profile
